According to patent publication US20050118244A1, “Transmittal therapeutic systems containing steroid hormones and propylene glycol monocaprylate” (LTS Lohmann Therapie-System AG, priority 2001, published 2005):

Test: Flux of active ingredient from transdermal therapeutic system in modified Franz diffusion cell
Assay type: in vitro ADME, human
Conditions: for Cumulative amount of active ingredient after 3 days: human epidermis, 32° C.
Experimental: The measurements were carried out as follows: a modified Franz diffusion cell and, in each case, a transdermal therapeutic system with an effective diffusion area of 4.1 cm^2 was used. The test temperature was 32° C. The flux of active ingredient was measured on an epidermis from human skin. The acceptor used was an aqueous solution of 0.1% hydroxypropyl-β-cyclodextrin+0.1% NaN3; the acceptor volume was 9 ml (volume exchange after 32, 48, 56 and 72 hours).

| Compound | Cumulative amount of active ingredient after 3 days (TTS formula: Progestogen (Org 30659) 5.0 % by weight, Durotak 2287 90.0 %, propylene glycol monocaprylate 5.0 %) | Cumulative amount of active ingredient after 3 days (TTS formula: Progestogen (Org 30659) 5.0 % by weight, Durotak 2287 95.0 %, no penetration promoter) | Cumulative amount of active ingredient after 3 days (TTS formula: Testosterone 2.0 % by weight, Durotak 2287 93.0 %, propylene glycol monocaprylate 5.0 %) | Cumulative amount of active ingredient after 3 days (TTS formula: Testosterone 2.0 % by weight, Durotak 2287 98.0 %, no penetration promoter) | Increase of the flux of active ingredient on use of 5% propylene glycol monocaprylate (TTS with 5% propylene glycol monocaprylate versus TTS without, Examples 1 and 2) |
| --- | --- | --- | --- | --- | --- |
| C#C[C@]1(O)C=C[C@H]2[C@@H]3CCC4=CC(=O)CC[C@@H]4[C@H]3C(=C)C[C@@]21C [Progestogen (Org 30659), (17α)-17-hydroxy-11-methylene-19-norpregna-4,15-dien-20-yn-3-one] | 51.3 μg/cm^2 | 44.7 μg/cm^2 |  |  |  |
| C[C@]12CC[C@H]3[C@@H](CCC4=CC(=O)CC[C@@]43C)[C@@H]1CC[C@@H]2O [Testosterone, testosterone] |  |  | 36.2 μg/cm^2 | 30.2 μg/cm^2 | about 20% |
